This passage reports MIC and dose excreted results from EP0321364A2, “Orally administrable cephalosporin derivatives, and the production and uses thereof” (ZAIDAN HOJIN BISEIBUTSU KAGAKU KENKYU KAI, priority 1987, dated 1989).

Converted amounts (≈) assume the structure as drawn.

One may read the MIC as the lowest concentration that inhibits growth of the organism.

Data set [1] has as its system Pseudomonas aeruginosa IFO3445. Description: MIC, serial dilution method in Müller-Hinton agar. Format: cell-based. Conditions: 37°C, 18 hours. As for the experimental part:
(§1) The antibacterial activities of the cephalosporin compounds of the formula (I) according to this invention, specifically the final product compounds of the Examples 1 to 6 given hereinafter, were assayed in term of their minimum inhibitory concentrations (MIC; mcg/ml) against various test bacteria, as determined according to a standard serial dilution method in Müller-Hinton agar medium (a product of Difico company), where the incubation was made at 37°C for 18 hours. For the comparison purpose, the antibacterial spectrum of a known compound, Cefalexin (abbreviated as CEX) was also assayed in the same way as above.

Data set [2] concerns Salmonella paratyphi 1015. Briefly: MIC, serial dilution method in Müller-Hinton agar. It is filed as cell-based. Particulars: Salmonella enterica, 37°C, 18 hours. As for the experimental part:
as §1

Data set [3] has as its system Staphylococcus aureus Terajima. Briefly: MIC, serial dilution method in Müller-Hinton agar. It is filed as cell-based. Particulars: 37°C, 18 hours. As for the experimental part: as §1
The test system of data set [4] is Klebsiella pneumoniae PCI602. Description: MIC, serial dilution method in Müller-Hinton agar. It is filed as cell-based. Particulars: Klebsiella pneumoniae, PCI602, 18 h. As for the experimental part: as §1
Data set [5] deals with Rms213/Escherichia coli K-12 W3630. Briefly: MIC, serial dilution method in Müller-Hinton agar. Conditions: 18 h. It is filed as cell-based. As for the experimental part:
as §1

For a further data set, the system named is Proteus rettgeri IFO3850. Briefly: MIC, serial dilution method in Müller-Hinton agar. Format: cell-based. Particulars: Providencia rettgeri, IFO3850, 18 h. As for the experimental part: as §1
Data set [6] relates to Salmonella enteritidis G14. Briefly: MIC, serial dilution method in Müller-Hinton agar. Format: cell-based. Particulars: Salmonella enterica; Salmonella enteritidis G14; Müller-Hinton agar, 37°C, 18 hours; read-out: MIC. As for the experimental part:
as §1

In another data set the test system is Proteus vulgaris OX-19. Description: MIC, serial dilution method in Müller-Hinton agar. Format: cell-based. Particulars: OX19, 37°C, 18 hours. As for the experimental part: as §1
Data set [7] deals with Klebsiella oxytosa GN10560. Description: MIC, serial dilution method in Müller-Hinton agar. Conditions: Klebsiella oxytosa GN10560, cefuroximase producing strain, 37°C, 18 hours. Format: cell-based. As for the experimental part:
as §1

Data set [8] has as its system Micrococcus luteus ATCC9341. Description: MIC, serial dilution method in Müller-Hinton agar. It is filed as cell-based. Conditions: 37°C, 18 hours. As for the experimental part: as §1
Data set [9] has as its system Rms212/Escherichia coli K-12 W3630. Briefly: MIC, serial dilution method in Müller-Hinton agar. It is filed as cell-based. Conditions: 18 h. As for the experimental part:
as §1

The test system of data set [10] is Staphylococcus aureus MS353. Briefly: MIC, serial dilution method in Müller-Hinton agar. Format: cell-based. Conditions: Staphylococcus aureus, MS353, 18 h. As for the experimental part: as §1
Data set [11] relates to Staphylococcus aureus FDA209P JC-1. Description: MIC, serial dilution method in Müller-Hinton agar. It is filed as cell-based. Particulars: Staphylococcus aureus FDA209P JC-1; Müller-Hinton agar, 37°C, 18 hours; read-out: MIC. As for the experimental part:
as §1

The subject of data set [12] is Rms823/Escherichia coli K-12 W3630. Description: MIC, serial dilution method in Müller-Hinton agar. Format: cell-based. Particulars: 18 h. As for the experimental part: as §1
Data set [13] concerns Salmonella schottmulleri 8006. Description: MIC, serial dilution method in Müller-Hinton agar. Format: cell-based. Particulars: 37°C, 18 hours. As for the experimental part: as §1
In another data set the test system is Salmonella typhi 901. Briefly: MIC, serial dilution method in Müller-Hinton agar. Particulars: Salmonella enterica, 18 h. It is filed as cell-based. As for the experimental part:
as §1

Data set [14] deals with Escherichia coli NIHJ-JS-2. Briefly: MIC, serial dilution method in Müller-Hinton agar. It is filed as cell-based. Conditions: NIHJJS2; Escherichia coli NIHJ-JS-2; Müller-Hinton agar, 37°C, 18 hours; read-out: MIC. As for the experimental part:
as §1

Data set [15] relates to Rms139/MI Pseudomonas aeruginosa. Description: MIC, serial dilution method in Müller-Hinton agar. It is filed as cell-based. Conditions: 18 h. As for the experimental part:
as §1

Data set [16] deals with Rte16/Escherichia coli K-12 W3630. Briefly: MIC, serial dilution method in Müller-Hinton agar. Format: cell-based. Particulars: 18 h. As for the experimental part: as §1
For another data set, the system named is Proteus morganii IFO3848. Description: MIC, serial dilution method in Müller-Hinton agar. It is filed as cell-based. Conditions: Morganella morganii, IFO3848, 18 h. As for the experimental part:
as §1

Data set [17] has as its system Salmonella typhimurium IID971. Briefly: MIC, serial dilution method in Müller-Hinton agar. Format: cell-based. Particulars: Salmonella enterica, 18 h. As for the experimental part:
as §1

Data set [18] deals with Escherichia coli K-12 C600. Briefly: MIC, serial dilution method in Müller-Hinton agar. Format: cell-based. Conditions: K12C600; Escherichia coli K-12 C600; Müller-Hinton agar, 37°C, 18 hours; read-out: MIC. As for the experimental part:
as §1

Data set [19] relates to Bacillus subtilis ATCC6633. Description: MIC, serial dilution method in Müller-Hinton agar. It is filed as cell-based. Conditions: 37°C, 18 hours. As for the experimental part:
as §1

Data set [20] can be described thus: Test 1: urinary recovery after oral administration. It is filed as in vivo. Conditions: mice (ICR-strain, female), 300 mcg per mouse, urine collected until 5 hours after administration, microbial assay, molar percentage. As for the experimental part: To mice (ICR-strain, female, 4 weeks-aged) was orally administered a new cephalosporin compound according to this invention at a dosage of 300 mcg per mouse. Until the end of 5 hours after oral administration of the test cephalosporin compound, all the volumes of urine discharged by the treated mice were collected together, and the total amount of the test compound remaining in the collected urine was measured by a microbial assay method. The urinary recovery of the test compound was calculated in terms of percentage of the molar quantity of the test compound as recovered, against the molar quantity of the test compound as orally given.

Take `C/C=C\C1=C(C(=O)O)N2C(=O)C(NC(=O)[C@H](N)c3ccc(COC)c(OC)c3)[C@H]2SC1` (stereo partly drawn) [Example 6 Compound, 7-{(R)-2-amino-2-(3-methoxy-4-methoxymethylphenyl)acetamido}-3-{(Z)-1-propenyl}-3-cephem-4-carboxylic acid]: the MIC is greater than 100 µg/mL in data set [1]; 3.13 µg/mL (≈ 6.99 µM) in data set [2]; 0.1 µg/mL (≈ 0.223 µM) in data set [3]; 1.56 µg/mL (≈ 3.49 µM) in data set [4]; 12.5 µg/mL (≈ 27.9 µM) in data set [5]; 12.5 µg/mL (≈ 27.9 µM) against Proteus rettgeri IFO3850. The MIC in data set [6] is 6.25 µg/mL (≈ 14 µM); against Proteus vulgaris OX-19 it was 100 µg/mL (≈ 223 µM); in data set [7] it was greater than 100 µg/mL; in data set [8], 0.025 µg/mL (≈ 0.0559 µM); in data set [9], 100 µg/mL (≈ 223 µM); in [10], 1.56 µg/mL (≈ 3.49 µM). The MIC is 0.78 µg/mL (≈ 1.74 µM) in data set [11]; greater than 100 µg/mL in data set [12]; 1.56 µg/mL (≈ 3.49 µM) in [13]; 12.5 µg/mL (≈ 27.9 µM) against Salmonella typhi 901; 25 µg/mL (≈ 55.9 µM) in [14]; greater than 100 µg/mL in data set [15]. The MIC in data set [16] is 25 µg/mL (≈ 55.9 µM); in the data set on Proteus morganii IFO3848, 1.56 µg/mL (≈ 3.49 µM); in data set [17], 12.5 µg/mL (≈ 27.9 µM); in [18], 6.25 µg/mL (≈ 14 µM); in data set [19], 0.05 µg/mL (≈ 0.112 µM). The molecule also came in with a dose excreted in data set [20] of 32.9%.
